Data from article PMC4450297, “Screening Active Compounds from Garcinia Species Native to China Reveals Novel Compounds Targeting the STAT/JAK Signaling Pathway” (BioMed Research International, 2015).

What follows are compounds tested on ChaGo-K-1 (assay: Cell panel screen (CellTiter-Glo)). Settings: ChaGo-K-1 (Lung), 20 micromolar, 72 hrs.
Format: cell-based, human
Procedure: (§1) All cells were obtained from the cell bank of the American Type Culture Collection (ATCC) and cultured in the supplier's recommended media supplemented with 10% FBS. The cell panel screen was measured using the CellTiter-Glo assay (Promega, Madison, WI) following a standard protocol. Briefly, cancer cells were seeded in 96-well plates and cultured overnight at 37°C with or without 5% CO2 in an incubator. Each compound was dissolved with limited DMSO and diluted to a certain concentration with culture medium and then added to the corresponding well of the cell plate. The final concentration of compound was 20 μM. The control cells (without treatment) received the same amount of DMSO and were incubated under the same conditions. After 72 h cultivation, 100 μL of the CellTiter-Glo reagent was added directly to each well for 10-minute incubation. The plate was then read on a FlexStation 3 microplate luminometer (Molecular Devices, USA) to monitor the luminescence signal generated by the luciferase-catalyzed reaction of luciferin and ATP. The percent of growth inhibition was calculated using the following formula: (untreated cells − treated cells)/(untreated cells − background without cells) ∗ 100.
O=c1c2cc(O)ccc2oc2cccc(O)c12 [Gof3] was tested, and the “Percent Inhibition” value was 12%.

What follows are compounds tested on HEC-1-A (assay: Cell panel screen (CellTiter-Glo)). Settings: HEC-1-A (Uterus), 20 micromolar, 72 hrs.
Format: cell-based, human
Procedure: as §1
In the case of O=c1c2cc(O)ccc2oc2cccc(O)c12 [Gof3], the “Percent Inhibition” value is reported as 19%.

Each compound was assayed on HCC1569 (assay: Cell panel screen (CellTiter-Glo)). Settings: HCC1569 (Breast), 20 micromolar, 72 hrs.
Format: cell-based, human
Procedure: as §1
O=c1c2cc(O)ccc2oc2cccc(O)c12 [Gof3] was tested, and the “Percent Inhibition” value was 29%.

Each compound was assayed on Colo 205 (assay: Cell panel screen (CellTiter-Glo)). Settings: Colo 205, 20 micromolar, 72 hrs.
Format: cell-based, human
Procedure: as §1
In the case of O=c1c2cc(O)ccc2oc2cccc(O)c12 [Gof3], the “Percent Inhibition” value is reported as 22%.

These compounds were tested on C8166 (assay: Cell panel screen (CellTiter-Glo)). Settings: C8166 (Leukemia), 20 micromolar, 72 hrs.
Format: cell-based, human
Procedure: as §1
In the case of O=c1c2cc(O)ccc2oc2cccc(O)c12 [Gof3], the “Percent Inhibition” value is reported as 29%.

What follows are compounds tested on HCC1599 (assay: Cell panel screen (CellTiter-Glo)). Settings: HCC1599 (Breast), 20 micromolar, 72 hrs.
Format: cell-based, human
Procedure: as §1
In the case of O=c1c2cc(O)ccc2oc2cccc(O)c12 [Gof3], the “Percent Inhibition” value is reported as 36%.

The compounds below were run on M059J (assay: Cell panel screen (CellTiter-Glo)). Settings: M059J (Brain), 20 micromolar, 72 hrs.
Format: cell-based, human
Procedure: as §1
In the case of O=c1c2cc(O)ccc2oc2cccc(O)c12 [Gof3], the “Percent Inhibition” value is reported as 53%.

Each compound was assayed on HPAF-II (assay: Cell panel screen (CellTiter-Glo)). Settings: HPAF-II (Pancreas), 20 micromolar, 72 hrs.
Format: cell-based, human
Procedure: as §1
With O=c1c2cc(O)ccc2oc2cccc(O)c12 [Gof3] the “Percent Inhibition” value was 15%.

The compounds below were run on NCI-H1770 (assay: Cell panel screen (CellTiter-Glo)). Settings: NCI-H1770 (Lung), 20 micromolar, 72 hrs.
Format: cell-based, human
Procedure: as §1
O=c1c2cc(O)ccc2oc2cccc(O)c12 [Gof3] was tested, and the “Percent Inhibition” value was 17%.

Each compound was assayed on HT-1197 (assay: Cell panel screen (CellTiter-Glo)). Settings: HT-1197 (Urinary bladder), 20 micromolar, 72 hrs.
Format: cell-based, human
Procedure: as §1
In the case of O=c1c2cc(O)ccc2oc2cccc(O)c12 [Gof3], the “Percent Inhibition” value is reported as 28%.

The compounds below were run on T98G (assay: Cell panel screen (CellTiter-Glo)). Settings: T98G (Brain), 20 micromolar, 72 hrs.
Format: cell-based, human
Procedure: as §1
In the case of O=c1c2cc(O)ccc2oc2cccc(O)c12 [Gof3], the “Percent Inhibition” value is reported as 27%.

These compounds were tested on HCC1937 (assay: Cell panel screen (CellTiter-Glo)). Settings: HCC1937 (Breast), 20 micromolar, 72 hrs.
Format: cell-based, human
Procedure: as §1
O=c1c2cc(O)ccc2oc2cccc(O)c12 [Gof3] was tested, and the “Percent Inhibition” value was 8%.

These compounds were tested on A704 (assay: Cell panel screen (CellTiter-Glo)). Settings: A704 (Kidney), 20 micromolar, 72 hrs.
Format: cell-based, human
Procedure: as §1
With O=c1c2cc(O)ccc2oc2cccc(O)c12 [Gof3] the “Percent Inhibition” value was 23%.

Each compound was assayed on NCI-H2405 (assay: Cell panel screen (CellTiter-Glo)). Settings: NCI-H2405 (Lung), 20 micromolar, 72 hrs.
Format: cell-based, human
Procedure: as §1
For O=c1c2cc(O)ccc2oc2cccc(O)c12 [Gof3], the “Percent Inhibition” value was -13%.

These compounds were tested on HGC-27 (assay: Cell panel screen (CellTiter-Glo)). Settings: HGC-27 (Stomach), 20 micromolar, 72 hrs.
Format: cell-based, human
Procedure: as §1
O=c1c2cc(O)ccc2oc2cccc(O)c12 [Gof3] was tested, and the “Percent Inhibition” value was 34%.

Each compound was assayed on C3A (assay: Cell panel screen (CellTiter-Glo)). Settings: C3A (Liver), 20 micromolar, 72 hrs.
Format: cell-based, human
Procedure: as §1
In the case of O=c1c2cc(O)ccc2oc2cccc(O)c12 [Gof3], the “Percent Inhibition” value is reported as 7%.

These compounds were tested on NCI-H1694 (assay: Cell panel screen (CellTiter-Glo)). Settings: NCI-H1694 (Lung), 20 micromolar, 72 hrs.
Format: cell-based, human
Procedure: as §1
O=c1c2cc(O)ccc2oc2cccc(O)c12 [Gof3] was tested, and the “Percent Inhibition” value was 29%.

Each compound was assayed on NCI-H2347 (assay: Cell panel screen (CellTiter-Glo)). Settings: NCI-H2347 (Lung), 20 micromolar, 72 hrs.
Format: cell-based, human
Procedure: as §1
For O=c1c2cc(O)ccc2oc2cccc(O)c12 [Gof3], the “Percent Inhibition” value was 20%.

What follows are compounds tested on CCF-STTG1 (assay: Cell panel screen (CellTiter-Glo)). Settings: CCF-STTG1 (Brain), 20 micromolar, 72 hrs.
Format: cell-based, human
Procedure: as §1
For O=c1c2cc(O)ccc2oc2cccc(O)c12 [Gof3], the “Percent Inhibition” value was 31%.

Each compound was assayed on HCC1395 (assay: Cell panel screen (CellTiter-Glo)). Settings: HCC1395 (Breast), 20 micromolar, 72 hrs.
Format: cell-based, human
Procedure: as §1
With O=c1c2cc(O)ccc2oc2cccc(O)c12 [Gof3] the “Percent Inhibition” value was 35%.

What follows are compounds tested on Bel-7402 (assay: Cell panel screen (CellTiter-Glo)). Settings: Bel-7402 (Liver), 20 micromolar, 72 hrs.
Format: cell-based, human
Procedure: as §1
In the case of O=c1c2cc(O)ccc2oc2cccc(O)c12 [Gof3], the “Percent Inhibition” value is reported as 45%.

The compounds below were run on NCI-H524 (assay: Cell panel screen (CellTiter-Glo)). Settings: NCI-H524 (Lung), 20 micromolar, 72 hrs.
Format: cell-based, human
Procedure: as §1
In the case of O=c1c2cc(O)ccc2oc2cccc(O)c12 [Gof3], the “Percent Inhibition” value is reported as 18%.

These compounds were tested on BT-549 (assay: Cell panel screen (CellTiter-Glo)). Settings: BT-549 (Breast), 20 micromolar, 72 hrs.
Format: cell-based, human
Procedure: as §1
O=c1c2cc(O)ccc2oc2cccc(O)c12 [Gof3] was tested, and the “Percent Inhibition” value was 16%.

Each compound was assayed on J82 (assay: Cell panel screen (CellTiter-Glo)). Settings: J82 (Urinary bladder), 20 micromolar, 72 hrs.
Format: cell-based, human
Procedure: as §1
O=c1c2cc(O)ccc2oc2cccc(O)c12 [Gof3] was tested, and the “Percent Inhibition” value was 20%.

These compounds were tested on T47D (assay: Cell panel screen (CellTiter-Glo)). Settings: T47D (Breast), 20 micromolar, 72 hrs.
Format: cell-based, human
Procedure: as §1
O=c1c2cc(O)ccc2oc2cccc(O)c12 [Gof3] was tested, and the “Percent Inhibition” value was 10%.

Each compound was assayed on CW-2 (assay: Cell panel screen (CellTiter-Glo)). Settings: CW-2 (Colon), 20 micromolar, 72 hrs.
Format: cell-based, human
Procedure: as §1
In the case of O=c1c2cc(O)ccc2oc2cccc(O)c12 [Gof3], the “Percent Inhibition” value is reported as 39%.

The compounds below were run on RL95 (assay: Cell panel screen (CellTiter-Glo)). Settings: RL95 (Uterus), 20 micromolar, 72 hrs.
Format: cell-based, human
Procedure: as §1
For O=c1c2cc(O)ccc2oc2cccc(O)c12 [Gof3], the “Percent Inhibition” value was 42%.

These compounds were tested on NCI-H28 (assay: Cell panel screen (CellTiter-Glo)). Settings: NCI-H28 (Lung), 20 micromolar, 72 hrs.
Format: cell-based, human
Procedure: as §1
With O=c1c2cc(O)ccc2oc2cccc(O)c12 [Gof3] the “Percent Inhibition” value was 27%.

These compounds were tested on A498 (assay: Cell panel screen (CellTiter-Glo)). Settings: A498 (listed under Lung), 20 micromolar, 72 hrs.
Format: cell-based, human
Procedure: as §1
For O=c1c2cc(O)ccc2oc2cccc(O)c12 [Gof3], the “Percent Inhibition” value was 39%.

Each compound was assayed on BT-474 (assay: Cell panel screen (CellTiter-Glo)). Settings: BT-474 (Breast), 20 micromolar, 72 hrs.
Format: cell-based, human
Procedure: as §1
O=c1c2cc(O)ccc2oc2cccc(O)c12 [Gof3] was tested, and the “Percent Inhibition” value was 7%.

Each compound was assayed on NCI-H1623 (assay: Cell panel screen (CellTiter-Glo)). Settings: NCI-H1623 (Lung), 20 micromolar, 72 hrs.
Format: cell-based, human
Procedure: as §1
With O=c1c2cc(O)ccc2oc2cccc(O)c12 [Gof3] the “Percent Inhibition” value was -7%.

Each compound was assayed on ZR-75-30 (assay: Cell panel screen (CellTiter-Glo)). Settings: ZR-75-30 (Breast), 20 micromolar, 72 hrs.
Format: cell-based, human
Procedure: as §1
In the case of O=c1c2cc(O)ccc2oc2cccc(O)c12 [Gof3], the “Percent Inhibition” value is reported as 41%.

These compounds were tested on SW13 (assay: Cell panel screen (CellTiter-Glo)). Settings: SW13 (Adrenal gland), 20 micromolar, 72 hrs.
Format: cell-based, human
Procedure: as §1
O=c1c2cc(O)ccc2oc2cccc(O)c12 [Gof3] was tested, and the “Percent Inhibition” value was 33%.

Each compound was assayed on Panc 03.27 (assay: Cell panel screen (CellTiter-Glo)). Settings: Panc 03.27 (Pancreas), 20 micromolar, 72 hrs.
Format: cell-based, human
Procedure: as §1
For O=c1c2cc(O)ccc2oc2cccc(O)c12 [Gof3], the “Percent Inhibition” value was 7%.

What follows are compounds tested on MSTO-211-H (assay: Cell panel screen (CellTiter-Glo)). Settings: MSTO-211-H (Lung), 20 micromolar, 72 hrs.
Format: cell-based, human
Procedure: as §1
O=c1c2cc(O)ccc2oc2cccc(O)c12 [Gof3] was tested, and the “Percent Inhibition” value was 36%.

These compounds were tested on TCCSUP (assay: Cell panel screen (CellTiter-Glo)). Settings: TCCSUP (Urinary bladder), 20 micromolar, 72 hrs.
Format: cell-based, human
Procedure: as §1
With O=c1c2cc(O)ccc2oc2cccc(O)c12 [Gof3] the “Percent Inhibition” value was 32%.
